Biological target: T1, PD-1/PD-L1 (Homo sapiens, UniProt Q9NZQ7)
T1 construct: made in house; host or cells: HEK293T
Assay: PD-1/PD-L1 Homogenous Time-Resolved Fluorescence (HTRF) binding assay
Details: PD-L1-His 10 nM, PD-1-Ig 20 nM; value given as range class; read-out: Range or IC50
Outline: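 Read-out is time-resolved FRET between europium cryptate-labelled anti-Ig (1 nM final) and APC-labelled anti-His (20 nM final), both dispensed onto the binding mix. Assay buffer: dPBS containing 0.1% bovine serum albumin and 0.05% Tween-20.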

T1 sequence (Q9NZQ7 with tags, fused parts or gaps): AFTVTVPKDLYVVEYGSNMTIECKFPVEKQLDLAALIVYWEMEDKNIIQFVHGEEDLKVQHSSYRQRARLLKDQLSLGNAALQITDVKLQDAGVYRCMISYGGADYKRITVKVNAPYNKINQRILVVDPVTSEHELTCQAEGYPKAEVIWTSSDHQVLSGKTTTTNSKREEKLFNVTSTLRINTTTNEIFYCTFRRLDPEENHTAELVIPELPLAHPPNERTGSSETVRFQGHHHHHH

IC50 [nM]	Structure (SMILES)
0.21 to 10	Cc1c(COc2cc(OCc3cncc(C#N)c3)c(CN3CCCC[C@H]3C(=O)O)cc2Cl)cccc1-c1cccc(O[C@H](C)CCN2CC[C@@H](O)C2)c1Cl [Example 1523]
0.21 to 10	Cc1c(COc2cc(OCc3cncc(S(C)(=O)=O)c3)c(CN[C@H](CO)C(=O)O)cc2Cl)cccc1-c1cccc(OCCCN2CC[C@@H](O)C2)c1 [Example 1023, (R)-2-((5-chloro-4-((3′-(3-((R)-3-hydroxypyrrolidin-1-yl)propoxy)-2-methyl-[1,1′-biphenyl]-3-yl)methoxy)-2-((5-(methylsulfonyl)pyridin-3-yl)methoxy)benzyl)amino)-3-hydroxypropanoic Acid]
10 to 100	CCNC(=O)c1cccc(-c2cccc(COc3cc(OCc4cncc(C#N)c4)c(CNC(CO)CO)cc3Cl)c2C)c1C [Example 4009, 3′-((2-chloro-5-((5-cyanopyridin-3-yl)methoxy)-4-(((1,3-dihydroxypropan-2-yl)amino)methyl)phenoxy)methyl)-N-ethyl-2,2′-dimethyl-[1,1′-biphenyl]-3-carboxamide]
0.21 to 10	CN(C)CCOc1cc(OCc2cccc(-c3cccc(OCCCN4CC[C@@H](O)C4)c3Cl)c2Cl)c(Cl)cc1CNC(C)(CO)CO [Example 2108, (R)-2-((5-chloro-4-((2,2′-dichloro-3′-(3-(3-hydroxypyrrolidin-1-yl)propoxy)-[1,1′-biphenyl]-3-yl)methoxy)-2-(2-(dimethylamino)ethoxy)benzyl)amino)-2-methylpropane-1,3-diol]
0.21 to 10	CCOC(=O)C1(CO)CCN(CCCOc2cccc(-c3cccc(COc4cc(OCc5cncc(S(C)(=O)=O)c5)c(CN[C@H](CO)C(=O)O)cc4Cl)c3C)c2C)C1 (stereo partly drawn) [Example 1045, (2R)-2-((5-chloro-4-((3′-(3-(3-(ethoxycarbonyl)-3-(hydroxymethyl)pyrrolidin-1-yl)propoxy)-2,2′-dimethyl-[1,1′-biphenyl]-3-yl)methoxy)-2-((5-(methylsulfonyl)pyridin-3-yl)methoxy)benzyl)amino)-3-hydroxypropanoic Acid]
2010 to 10000	Cc1c(COc2cc(OCc3cncc(C#N)c3)c(CN3CCOC[C@H]3C(=O)O)cc2Cl)cccc1-c1cccc(C(=O)N(C)C)c1C [Example 4036, (S)-4-(5-chloro-2-((5-cyanopyridin-3-yl)methoxy)-4-((3′-(dimethylcarbamoyl)-2,2′-dimethyl-[1,1′-biphenyl]-3-yl)methoxy)benzyl)morpholine-3-carboxylic Acid]
0.21 to 10	Cc1c(COc2cc(OCc3cncc(C#N)c3)c(CN3CCCC[C@H]3C(=O)O)cc2Cl)cccc1-c1cccc(OCCCNC[C@@H](O)c2ccccc2)c1C [Example 2221, (2S)-1-(5-chloro-2-((5-cyanopyridin-3-yl)methoxy)-4-((3′-(3-((S)-2-hydroxy-2-phenylethylamino)propoxy)-2,2′-dimethylbiphenyl-3-yl)methoxy)benzyl)piperidine-2-carboxylic Acid]
0.21 to 10	Cc1c(COc2cc(OCc3cncc(C#N)c3)c(CNC(CO)CO)cc2Cl)cccc1-c1cccc(OCCCN2CCC[C@@H](CO)C2)c1C [Example 2292, (R)-5-((4-chloro-2-(((1,3-dihydroxypropan-2-yl)amino)methyl)-5-((3′-(3-(3-(hydroxymethyl)piperidin-1-yl)propoxy)-2,2′-dimethyl-[1,1′-biphenyl]-3-yl)methoxy)phenoxy)methyl)nicotinonitrile]
10 to 100	Cc1c(COc2cc(OCc3cncc(C#N)c3)c(CN(CCO)CCO)cc2Cl)cccc1-c1cccc(CN(C)CCN2CCS(=O)(=O)CC2)c1C [Example 4084, 5-((2-((bis(2-hydroxyethyl)amino)methyl)-4-chloro-5-((3′-(((2-(1,1-dioxidothiomorpholino)ethyl)(methyl)amino)methyl)-2,2′-dimethyl-[1,1′-biphenyl]-3-yl)methoxy)phenoxy)methyl)nicotinonitrile]
0.21 to 10	Cc1c(COc2cc(OCc3cncc(C#N)c3)c(CNC(CO)CO)cc2Cl)cccc1-c1cccc(OCCCNC[C@H](O)CO)c1Cl [Example 2036, (S)-5-((4-chloro-5-((2′-chloro-3′-(3-((2,3-dihydroxypropyl)amino)propoxy)-2-methyl-[1,1′-biphenyl]-3-yl)methoxy)-2-(((1,3-dihydroxypropan-2-yl)amino)methyl)phenoxy)methyl)nicotinonitrile]
0.21 to 10	Cc1ccc(COc2cc(OCc3cccc(-c4cccc(OCCCN5CC[C@@H](O)C5)c4C)c3C)c(Cl)cc2CN2CCCC[C@H]2C(=O)O)cc1C [Example 4508, (S)-1-(5-chloro-2-((3,4-dimethylbenzyl)oxy)-4-((3′-(3-((R)-3-hydroxypyrrolidin-1-yl)propoxy)-2,2′-dimethyl-[1,1′-biphenyl]-3-yl)methoxy)benzyl)piperidine-2-carboxylic Acid]
0.21 to 10	Cc1c(COc2cc(OCc3cncc(C#N)c3)c(CNC[C@H](O)CO)cc2Cl)cccc1-c1cccc(OCCCNC[C@H](O)CO)c1C [Example 2265, 5-((4-chloro-2-(((S)-2,3-dihydroxypropylamino)methyl)-5-((3′-(3-((S)-2,3-dihydroxypropylamino)propoxy)-2,2′-dimethylbiphenyl-3-yl)methoxy)phenoxy)methyl)nicotinonitrile]
0.21 to 10	CC(=O)NC1CCN(CCCOc2cccc(-c3cccc(COc4cc(OCc5cncc(C#N)c5)c(CN[C@](C)(CO)C(=O)O)cc4Cl)c3C)c2Cl)CC1 [Example 1079, (R)-2-((4-((3′-(3-(4-acetamidopiperidin-1-yl)propoxy)-2′-chloro-2-methyl-[1,1′-biphenyl]-3-yl)methoxy)-5-chloro-2-((5-cyanopyridin-3-yl)methoxy)benzyl)amino)-3-hydroxy-2-methylpropanoic Acid]
0.21 to 10	Cc1c(COc2cc(OCc3cncc(C#N)c3)c(CN3CCCC[C@H]3C(=O)O)cc2Cl)cccc1-c1cccc(OCCCN(C)C[C@H](O)CO)c1C [Example 2332, (S)-1-(5-chloro-2-((5-cyanopyridin-3-yl)methoxy)-4-((3′-(3-(((S)-2,3-dihydroxypropyl)(methyl)amino)propoxy)-2,2′-dimethyl-[1,1′-biphenyl]-3-yl)methoxy)benzyl)piperidine-2-carboxylic Acid]
0.21 to 10	Cc1c(COc2cc(OCc3cncc(C#N)c3)c(CN3CCCC[C@H]3C(=O)O)cc2Cl)cccc1-c1cccc(OCCCN2CCC[C@H](C(=O)O)C2)c1C [Example 2204, (2S)-1-(4-((3′-(3-((S)-3-carboxypiperidin-1-yl)propoxy)-2,2′-dimethylbiphenyl-3-yl)methoxy)-5-chloro-2-((5-cyanopyridin-3-yl)methoxy)benzyl)piperidine-2-carboxylic Acid]
0.21 to 10	CC[C@@H](C(=O)O)N(C)Cc1cc(Cl)c(OCc2cccc(-c3cccc(OCCCN4CC[C@@H](O)C4)c3C)c2C)cc1OCc1cncc(C#N)c1 [Example 4133, (S)-2-((5-chloro-2-((5-cyanopyridin-3-yl)methoxy)-4-((3′-(3-((R)-3-hydroxypyrrolidin-1-yl)propoxy)-2,2′-dimethyl-[1,1′-biphenyl]-3-yl)methoxy)benzyl)(methyl)amino)butanoic Acid]
0.21 to 10	Cc1c(CCCCN2CC[C@@H](O)C2)cccc1-c1cccc(COc2cc(OCc3cncc(C#N)c3)c(CNC(C)(CO)CO)cc2Cl)c1C [Example 4065, (R)-5-((4-chloro-2-(((1,3-dihydroxy-2-methylpropan-2-yl)amino)methyl)-5-((3′-(4-(3-hydroxypyrrolidin-1-yl)butyl)-2,2′-dimethyl-[1,1′-biphenyl]-3-yl)methoxy)phenoxy)methyl)nicotinonitrile]

— patent US10745382B2 (BRISTOL-MYERS SQUIBB COMPANY, priority 2015, dated 2020)
